Results from the kinase profiling compilation of Christmann-Franck et al. (2016).
“And” between values parts separate entries of the source, which are not always exact repeats. Equal entries are not always repeated.

Columns and labels:
MKNK1 (human) = MKNK1 (human) (UniProt Q9BUB5)
FLT1 (human) = FLT1 (human) (UniProt P17948)
NEK2 (human) = NEK2 (human) (UniProt P51955)
BTK (human) = BTK (human) (UniProt Q06187)
HIPK2 (human) = HIPK2 (human) (UniProt Q9H2X6)
EPHA2 (human) = EPHA2 (human) (UniProt P29317)
TBK1 (human) = TBK1 (human) (UniProt Q9UHD2)
MAPK9 (human) = MAPK9 (human) (UniProt P45984)
Sequence of MAPK9 (human) (P45984 whole entry, looked up): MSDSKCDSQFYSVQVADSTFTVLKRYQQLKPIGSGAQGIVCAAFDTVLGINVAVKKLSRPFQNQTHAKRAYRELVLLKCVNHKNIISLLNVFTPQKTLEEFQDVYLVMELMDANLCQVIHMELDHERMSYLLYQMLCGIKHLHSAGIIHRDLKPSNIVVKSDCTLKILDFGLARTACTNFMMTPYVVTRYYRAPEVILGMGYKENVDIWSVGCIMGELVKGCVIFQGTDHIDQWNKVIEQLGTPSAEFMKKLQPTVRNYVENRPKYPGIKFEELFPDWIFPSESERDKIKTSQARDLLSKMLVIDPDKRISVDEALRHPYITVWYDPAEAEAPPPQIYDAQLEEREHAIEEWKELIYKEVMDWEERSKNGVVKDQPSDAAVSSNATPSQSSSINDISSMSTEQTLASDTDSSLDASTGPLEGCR

PIM1 (human) = PIM1 (human) (UniProt P11309)
Sequence of PIM1 (human) (P11309 whole entry, looked up): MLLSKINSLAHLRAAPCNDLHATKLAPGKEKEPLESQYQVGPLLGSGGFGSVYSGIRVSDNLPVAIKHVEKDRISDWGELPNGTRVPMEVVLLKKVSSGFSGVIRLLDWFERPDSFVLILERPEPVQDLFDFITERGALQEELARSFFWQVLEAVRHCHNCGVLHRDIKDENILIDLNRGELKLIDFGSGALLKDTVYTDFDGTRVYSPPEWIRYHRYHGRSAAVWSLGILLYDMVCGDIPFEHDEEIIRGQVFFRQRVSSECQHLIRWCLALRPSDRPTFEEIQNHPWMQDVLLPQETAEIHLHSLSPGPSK

MAPK15 (human) = MAPK15 (human) (UniProt Q8TD08)
MARK3 (human) = MARK3 (human) (UniProt P27448)
MAPK8 (human) = MAPK8 (human) (UniProt P45983)
CHEK2 (human) = CHEK2 (human) (UniProt O96017)
Sequence of CHEK2 (human) (O96017 whole entry, looked up): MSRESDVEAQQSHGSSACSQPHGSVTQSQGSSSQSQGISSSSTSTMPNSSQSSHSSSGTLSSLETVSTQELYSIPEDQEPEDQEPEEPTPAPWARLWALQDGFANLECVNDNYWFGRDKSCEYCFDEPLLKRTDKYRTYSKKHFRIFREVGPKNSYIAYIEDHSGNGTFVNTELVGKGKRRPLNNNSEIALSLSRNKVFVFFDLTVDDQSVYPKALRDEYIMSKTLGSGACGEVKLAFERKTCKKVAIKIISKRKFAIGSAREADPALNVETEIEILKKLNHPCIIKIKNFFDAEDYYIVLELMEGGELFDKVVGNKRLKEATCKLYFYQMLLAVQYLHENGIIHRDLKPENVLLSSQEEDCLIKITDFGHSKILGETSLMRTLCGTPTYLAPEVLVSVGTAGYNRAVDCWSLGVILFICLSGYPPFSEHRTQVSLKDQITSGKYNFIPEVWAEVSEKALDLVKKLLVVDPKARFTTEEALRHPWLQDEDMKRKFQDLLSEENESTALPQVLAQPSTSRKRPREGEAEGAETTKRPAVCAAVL

IKBKE (human) = IKBKE (human) (UniProt Q14164)
BRSK2 (human) = BRSK2 (human) (UniProt Q8IWQ3)
RPS6KA5 KD1 KD2 (human) = RPS6KA5 KD1 KD2 (human) (UniProt O75582)
Sequence of RPS6KA5 KD1 KD2 (human) (O75582 whole entry, looked up): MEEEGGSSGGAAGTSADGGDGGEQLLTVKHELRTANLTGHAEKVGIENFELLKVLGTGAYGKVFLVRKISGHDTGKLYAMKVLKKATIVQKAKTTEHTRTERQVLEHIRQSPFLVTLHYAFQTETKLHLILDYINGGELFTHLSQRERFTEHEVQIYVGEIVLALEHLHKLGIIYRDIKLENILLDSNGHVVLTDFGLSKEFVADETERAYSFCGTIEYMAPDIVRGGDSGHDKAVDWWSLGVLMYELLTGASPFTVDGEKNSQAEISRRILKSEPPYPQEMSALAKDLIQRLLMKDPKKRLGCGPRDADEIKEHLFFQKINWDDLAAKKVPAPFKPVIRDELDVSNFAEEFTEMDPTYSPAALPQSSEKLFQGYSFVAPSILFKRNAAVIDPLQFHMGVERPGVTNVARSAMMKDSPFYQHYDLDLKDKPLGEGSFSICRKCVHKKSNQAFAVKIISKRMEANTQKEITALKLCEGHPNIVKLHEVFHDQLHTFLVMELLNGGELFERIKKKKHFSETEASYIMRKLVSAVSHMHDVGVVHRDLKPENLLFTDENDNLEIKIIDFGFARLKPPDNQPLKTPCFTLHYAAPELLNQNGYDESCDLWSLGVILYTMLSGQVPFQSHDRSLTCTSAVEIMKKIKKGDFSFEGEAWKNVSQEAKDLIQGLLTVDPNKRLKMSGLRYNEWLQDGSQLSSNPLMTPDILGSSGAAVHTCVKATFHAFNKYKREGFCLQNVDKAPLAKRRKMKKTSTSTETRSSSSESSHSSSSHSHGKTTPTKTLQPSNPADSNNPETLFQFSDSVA

PIM3 (human) = PIM3 (human) (UniProt Q86V86)
MAP2K1 (human) = MAP2K1 (human) (UniProt Q02750)
PRKAA1 or PRKAA2 (rat) = details: accession and sequence are those of the human protein
INSRR (human) = INSRR (human) (UniProt P14616)
MAPK11 (human) = MAPK11 (human) (UniProt Q15759)
MAPK14 (human) = MAPK14 (human) (UniProt Q16539)
PRKACA (human) = PRKACA (human) (UniProt P17612)
PDPK1 (human) = PDPK1 (human) (UniProt O15530)
Sequence of PDPK1 (human) (O15530 whole entry, looked up): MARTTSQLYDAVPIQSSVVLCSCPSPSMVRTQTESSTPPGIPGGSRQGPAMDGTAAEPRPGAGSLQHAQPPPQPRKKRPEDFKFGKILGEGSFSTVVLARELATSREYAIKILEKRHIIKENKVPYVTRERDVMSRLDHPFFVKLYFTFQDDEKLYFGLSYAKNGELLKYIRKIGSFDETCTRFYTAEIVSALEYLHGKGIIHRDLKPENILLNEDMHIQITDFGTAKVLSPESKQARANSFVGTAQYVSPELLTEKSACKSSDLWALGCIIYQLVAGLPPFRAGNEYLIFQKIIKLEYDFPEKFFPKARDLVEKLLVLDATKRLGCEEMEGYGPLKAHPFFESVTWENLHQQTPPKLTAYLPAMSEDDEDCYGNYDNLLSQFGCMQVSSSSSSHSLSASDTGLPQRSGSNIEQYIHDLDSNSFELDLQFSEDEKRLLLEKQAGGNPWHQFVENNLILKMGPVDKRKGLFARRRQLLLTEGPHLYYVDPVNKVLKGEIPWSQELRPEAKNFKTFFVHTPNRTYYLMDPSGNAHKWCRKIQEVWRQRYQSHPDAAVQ

MELK (human) = MELK (human) (UniProt Q14680)
IKBKB (human) = IKBKB (human) (UniProt O14920)
SYK (human) = SYK (human) (UniProt P43405)
IGF1R (human) = IGF1R (human) (UniProt P08069)
GSK3B (human) = GSK3B (human) (UniProt P49841)
DYRK2 (human) = DYRK2 (human) (UniProt Q92630)
EPHB3 (human) = EPHB3 (human) (UniProt P54753)
PAK7 (human) = PAK7 (human) (UniProt Q9P286)
PHKG1 (human) = PHKG1 (human) (UniProt Q16816)
CSNK1D (human) = CSNK1D (human) (UniProt P48730)

Sequence of BTK (human) (Q06187 whole entry, looked up): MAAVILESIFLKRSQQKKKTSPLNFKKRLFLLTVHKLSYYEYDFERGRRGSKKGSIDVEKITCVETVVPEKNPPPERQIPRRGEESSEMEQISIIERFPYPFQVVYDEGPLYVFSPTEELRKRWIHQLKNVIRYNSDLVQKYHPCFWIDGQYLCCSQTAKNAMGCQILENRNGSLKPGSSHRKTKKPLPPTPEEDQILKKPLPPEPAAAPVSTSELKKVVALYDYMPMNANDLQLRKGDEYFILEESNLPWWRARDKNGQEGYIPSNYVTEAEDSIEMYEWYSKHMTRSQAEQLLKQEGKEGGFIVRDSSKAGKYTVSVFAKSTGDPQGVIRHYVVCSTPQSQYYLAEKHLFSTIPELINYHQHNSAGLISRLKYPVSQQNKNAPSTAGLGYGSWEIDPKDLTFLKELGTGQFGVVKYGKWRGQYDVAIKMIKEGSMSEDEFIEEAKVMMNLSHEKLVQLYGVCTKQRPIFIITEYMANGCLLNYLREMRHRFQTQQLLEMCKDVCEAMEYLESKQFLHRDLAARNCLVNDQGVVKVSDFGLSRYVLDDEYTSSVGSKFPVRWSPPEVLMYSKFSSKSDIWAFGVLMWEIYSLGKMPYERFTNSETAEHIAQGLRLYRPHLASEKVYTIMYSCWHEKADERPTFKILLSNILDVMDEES
Sequence of HIPK2 (human) (Q9H2X6 whole entry, looked up): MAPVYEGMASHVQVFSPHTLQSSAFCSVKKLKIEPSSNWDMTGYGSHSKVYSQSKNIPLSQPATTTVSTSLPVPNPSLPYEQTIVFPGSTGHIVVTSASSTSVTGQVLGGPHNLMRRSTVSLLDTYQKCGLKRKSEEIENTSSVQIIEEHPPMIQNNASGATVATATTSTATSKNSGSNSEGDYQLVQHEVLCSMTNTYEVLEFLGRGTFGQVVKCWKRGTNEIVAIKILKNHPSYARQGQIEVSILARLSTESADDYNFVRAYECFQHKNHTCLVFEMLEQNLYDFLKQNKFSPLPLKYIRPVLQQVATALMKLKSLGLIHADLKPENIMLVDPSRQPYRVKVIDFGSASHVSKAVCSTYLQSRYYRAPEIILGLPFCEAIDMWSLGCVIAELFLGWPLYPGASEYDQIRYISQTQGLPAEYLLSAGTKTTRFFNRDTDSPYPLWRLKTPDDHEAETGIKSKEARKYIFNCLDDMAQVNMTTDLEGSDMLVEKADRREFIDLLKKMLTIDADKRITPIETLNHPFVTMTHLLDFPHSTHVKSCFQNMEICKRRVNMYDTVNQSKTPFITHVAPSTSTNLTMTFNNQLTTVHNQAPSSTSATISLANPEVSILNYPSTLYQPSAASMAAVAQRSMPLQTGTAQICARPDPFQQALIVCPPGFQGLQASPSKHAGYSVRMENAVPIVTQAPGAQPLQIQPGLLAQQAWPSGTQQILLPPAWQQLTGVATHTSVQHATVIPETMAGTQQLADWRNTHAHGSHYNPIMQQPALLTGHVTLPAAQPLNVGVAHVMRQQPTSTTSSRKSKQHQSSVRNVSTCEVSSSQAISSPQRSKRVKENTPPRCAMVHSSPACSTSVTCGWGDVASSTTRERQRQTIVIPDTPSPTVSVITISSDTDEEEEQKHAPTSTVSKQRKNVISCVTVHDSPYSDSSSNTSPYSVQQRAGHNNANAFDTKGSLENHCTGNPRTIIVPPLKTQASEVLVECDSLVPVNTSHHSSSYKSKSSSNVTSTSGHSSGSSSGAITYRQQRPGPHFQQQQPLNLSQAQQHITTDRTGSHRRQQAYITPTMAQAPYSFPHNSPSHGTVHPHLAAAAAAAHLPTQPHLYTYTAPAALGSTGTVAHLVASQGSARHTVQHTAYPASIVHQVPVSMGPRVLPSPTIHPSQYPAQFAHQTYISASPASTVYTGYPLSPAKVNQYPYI
Sequence of NEK2 (human) (P51955 whole entry, looked up): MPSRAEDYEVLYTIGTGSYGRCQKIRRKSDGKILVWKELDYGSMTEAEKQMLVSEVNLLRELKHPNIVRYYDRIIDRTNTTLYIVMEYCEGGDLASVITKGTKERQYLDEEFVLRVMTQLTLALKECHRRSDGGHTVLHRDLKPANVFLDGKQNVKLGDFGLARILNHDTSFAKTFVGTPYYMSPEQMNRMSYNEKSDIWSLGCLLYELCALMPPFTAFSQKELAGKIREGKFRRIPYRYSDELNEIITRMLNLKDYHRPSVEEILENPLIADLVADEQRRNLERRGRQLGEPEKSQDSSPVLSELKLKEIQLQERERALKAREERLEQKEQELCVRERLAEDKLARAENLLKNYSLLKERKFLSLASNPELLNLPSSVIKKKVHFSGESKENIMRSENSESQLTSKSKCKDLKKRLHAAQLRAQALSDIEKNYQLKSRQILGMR

## COC(=O)Nc1ccc(-c2nc(N3CCOCC3)c3cnn(C4CCN(C(=O)OC)CC4)c3n2)cc1
MKNK1 (human); compound 1.0 µM
  per cent of control: 96%
MKNK1 (human); compound 10.0 µM
  per cent of control: 92%
FLT1 (human); compound 1.0 µM
  per cent of control: 100%
FLT1 (human); compound 10.0 µM
  per cent of control: 88%
NEK2 (human); compound 1.0 µM
  per cent of control: 93%
NEK2 (human); compound 10.0 µM
  per cent of control: 101%
BTK (human); compound 1.0 µM
  per cent of control: 116%
BTK (human); compound 10.0 µM
  per cent of control: 99%
HIPK2 (human); compound 1.0 µM
  per cent of control: 95%
HIPK2 (human); compound 10.0 µM
  per cent of control: 94%
EPHA2 (human); compound 1.0 µM
  per cent of control: 106%
EPHA2 (human); compound 10.0 µM
  per cent of control: 104%
TBK1 (human); compound 1.0 µM
  per cent of control: 96%
TBK1 (human); compound 10.0 µM
  per cent of control: 94%
MAPK9 (human); compound 1.0 µM
  per cent of control: 92%
MAPK9 (human); compound 10.0 µM
  per cent of control: 89%
PIM1 (human); compound 1.0 µM
  per cent of control: 117%
PIM1 (human); compound 10.0 µM
  per cent of control: 103%
MAPK15 (human); compound 1.0 µM
  per cent of control: 94%
MAPK15 (human); compound 10.0 µM
  per cent of control: 98%
MARK3 (human); compound 1.0 µM
  per cent of control: 92%
MARK3 (human); compound 10.0 µM
  per cent of control: 107%
MAPK8 (human); compound 1.0 µM
  per cent of control: 93%
MAPK8 (human); compound 10.0 µM
  per cent of control: 91%
CHEK2 (human); compound 1.0 µM
  per cent of control: 86%
CHEK2 (human); compound 10.0 µM
  per cent of control: 88%
IKBKE (human); compound 1.0 µM
  per cent of control: 90%
IKBKE (human); compound 10.0 µM
  per cent of control: 90%
BRSK2 (human); compound 1.0 µM
  per cent of control: 95%
BRSK2 (human); compound 10.0 µM
  per cent of control: 88%
RPS6KA5 KD1 KD2 (human); compound 1.0 µM
  per cent of control: 83%
RPS6KA5 KD1 KD2 (human); compound 10.0 µM
  per cent of control: 86%
PIM3 (human); compound 1.0 µM
  per cent of control: 87%
PIM3 (human); compound 10.0 µM
  per cent of control: 80%
MAP2K1 (human); compound 1.0 µM
  per cent of control: 82%
MAP2K1 (human); compound 10.0 µM
  per cent of control: 79%
PRKAA1 or PRKAA2 (rat); compound 1.0 µM
  per cent of control: 78%
PRKAA1 or PRKAA2 (rat); compound 10.0 µM
  per cent of control: 82%
INSRR (human); compound 1.0 µM
  per cent of control: 88%
INSRR (human); compound 10.0 µM
  per cent of control: 99%
MAPK11 (human); compound 1.0 µM
  per cent of control: 82%
MAPK11 (human); compound 10.0 µM
  per cent of control: 81%
MAPK14 (human); compound 1.0 µM
  per cent of control: 97%
MAPK14 (human); compound 10.0 µM
  per cent of control: 88%
PRKACA (human); compound 1.0 µM
  per cent of control: 103%
PRKACA (human); compound 10.0 µM
  per cent of control: 100%
PDPK1 (human); compound 1.0 µM
  per cent of control: 98% and 100%
PDPK1 (human); compound 10.0 µM
  per cent of control: 80% and 101%
MELK (human); compound 1.0 µM
  per cent of control: 87%
MELK (human); compound 10.0 µM
  per cent of control: 75%
IKBKB (human); compound 1.0 µM
  per cent of control: 97%
IKBKB (human); compound 10.0 µM
  per cent of control: 100%
SYK (human); compound 1.0 µM
  per cent of control: 124%
SYK (human); compound 10.0 µM
  per cent of control: 127%
IGF1R (human); compound 1.0 µM
  per cent of control: 108%
IGF1R (human); compound 10.0 µM
  per cent of control: 101%
GSK3B (human); compound 1.0 µM
  per cent of control: 86%
GSK3B (human); compound 10.0 µM
  per cent of control: 93%
DYRK2 (human); compound 1.0 µM
  per cent of control: 92%
DYRK2 (human); compound 10.0 µM
  per cent of control: 96%
EPHB3 (human); compound 1.0 µM
  per cent of control: 100%
EPHB3 (human); compound 10.0 µM
  per cent of control: 116%
PAK7 (human); compound 1.0 µM
  per cent of control: 97%
PAK7 (human); compound 10.0 µM
  per cent of control: 87%
PHKG1 (human); compound 1.0 µM
  per cent of control: 108%
PHKG1 (human); compound 10.0 µM
  per cent of control: 93%
CSNK1D (human); compound 1.0 µM
  per cent of control: 90%
CSNK1D (human); compound 10.0 µM
  per cent of control: 92%
